Test results: patent publication US8999982B2, “Pharmaceutically active compounds as Axl inhibitors” (Lead Discovery Center GmbH, priority 2010, dated 2015)

Assays:
Axl [1] = target: T1, Axl (Homo sapiens (Human), UniProt P30530); assay: Axl binding assay
Description: Binding of the tracer to the kinase is detected using an EU-labeled anti-tag antibody. […] Binding of an inhibitor to the kinase competes for binding with the tracer, resulting in a loss of FRET-signal. At first a compound according to formula (I) was diluted in 20 mM Hepes pH 8.0, 1 mM DTT, 10 mM MgCl2 and 0.01% Brij35.

Axl [2] = target: T1, Axl; assay: Cellular Axl phosphorylation assay; assay type: cell-based; conditions: HEK293 cells transfected with Axl cDNA, 1 hour incubation
Description: 3. Cellular Axl Phosphorylation Assay:
HEK293 embryonal kidney fibroblasts were transfected in 96 wells with a plasmid containing Axl cDNA. As transfection reagent Superfect (Qiagen) was used. Transfection of the sole vector backbone served as negative control of Axl expression. After overnight incubation the cellular supernatant was replaced with fresh medium. On the following day the Axl-expressing cells were incubated for 1 hour with a compound according to formula (I) at the suitable concentrations. […] The mesoscale technology was used for quantification.

T1 sequence (P30530 26-894): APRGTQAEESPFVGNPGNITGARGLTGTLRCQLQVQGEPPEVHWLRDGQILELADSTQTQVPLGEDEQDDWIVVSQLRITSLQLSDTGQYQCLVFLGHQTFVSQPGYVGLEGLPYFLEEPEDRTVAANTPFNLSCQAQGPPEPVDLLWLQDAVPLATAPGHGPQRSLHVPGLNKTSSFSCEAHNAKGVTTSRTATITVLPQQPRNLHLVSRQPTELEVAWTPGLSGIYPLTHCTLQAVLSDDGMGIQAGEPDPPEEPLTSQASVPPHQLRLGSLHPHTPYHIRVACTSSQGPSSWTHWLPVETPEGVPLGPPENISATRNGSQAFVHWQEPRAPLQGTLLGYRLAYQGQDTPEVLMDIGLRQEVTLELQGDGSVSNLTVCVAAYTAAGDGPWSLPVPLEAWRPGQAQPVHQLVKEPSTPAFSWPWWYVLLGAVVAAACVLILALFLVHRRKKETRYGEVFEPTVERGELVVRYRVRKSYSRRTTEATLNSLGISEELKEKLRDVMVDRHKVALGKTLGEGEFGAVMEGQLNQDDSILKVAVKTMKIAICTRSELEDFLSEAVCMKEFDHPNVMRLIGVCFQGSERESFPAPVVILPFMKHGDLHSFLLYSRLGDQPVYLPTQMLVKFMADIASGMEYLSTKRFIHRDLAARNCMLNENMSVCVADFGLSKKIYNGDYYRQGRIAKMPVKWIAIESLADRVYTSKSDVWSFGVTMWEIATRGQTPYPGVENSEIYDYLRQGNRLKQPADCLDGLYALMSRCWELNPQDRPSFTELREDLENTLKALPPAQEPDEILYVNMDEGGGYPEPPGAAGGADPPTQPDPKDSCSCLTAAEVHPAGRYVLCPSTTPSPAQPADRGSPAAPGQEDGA

SMILES | IC50 (Axl [1]) | IC50 (Axl [2])
COc1cc2nccc(Oc3ccc(NC(=O)c4nn(-c5ccc(F)cc5)cc4CCN(C)C)cc3F)c2cc1OC [Example 36, N-(4-((6,7-dimethoxyquinolin-4-yl)oxy)-3-fluorophenyl)-4-(2-(dimethylamino)ethyl)-1-(4-fluorophenyl)-1H-pyrazole-3-carboxamide] | < 500 nM | < 500 nM
CCOc1cn(-c2ccc(F)cc2CCN(C)C)nc1C(=O)Nc1ccc(Oc2ccnc3cc(OC)c(OC)cc23)c(F)c1 [Example 37, N-[4-[(6,7-dimethoxy-4-quinolyl)oxy]-3-fluoro-phenyl]-1-[2-(2-dimethylaminoethyl)-4-fluoro-phenyl]-4-ethoxy-pyrazole-3-carboxamide] | < 500 nM | < 500 nM
COc1cc2c(Oc3ccc(NC(=O)c4csc(-c5ccccc5)n4)cc3F)ccnc2cc1OCCCN1CCOCC1 [Example 38, N-[3-fluoro-4-[[6-methoxy-7-(3-morpholinopropoxy)-4-quinolyl]oxy]phenyl]-2-phenyl-thiazole-4-carboxamide] | < 500 nM | < 500 nM
COc1cc2c(Oc3ccc(NC(=O)c4nn(C)cc4Br)cc3F)ccnc2cc1OCCCN1CCOCC1 [Example 39, 4-bromo-N-[3-fluoro-4-[[6-methoxy-7-(3-morpholinopropoxy)-4-quinolyl]oxy]phenyl]-1-methyl-pyrazole-3-carboxamide] | 500 to 5000 nM | < 500 nM
COc1cc2c(Oc3ccc(NC(=O)c4ccn(C)n4)cc3F)ccnc2cc1OCCCN1CCOCC1 [Example 40, N-[3-fluoro-4-[[6-methoxy-7-(3-morpholinopropoxy)-4-quinolyl]oxy]phenyl]-1-methyl-pyrazole-3-carboxamide] | 500 to 5000 nM | < 500 nM
COc1cc2c(Oc3ccc(NC(=O)c4cc(C)n(C(C)(C)C)n4)cc3F)ccnc2cc1OCCCN1CCOCC1 [Example 41, 1-tert-butyl-N-[3-fluoro-4-[[6-methoxy-7-(3-morpholinopropoxy)-4-quinolyl]oxy]phenyl]-5-methyl-pyrazole-3-carboxamide] | < 500 nM | < 500 nM
COc1cc2c(Oc3ccc(NC(=O)c4cc(C)n(C)n4)cc3F)ccnc2cc1OCCCN1CCOCC1 [Example 42, N-[3-fluoro-4-[[6-methoxy-7-(3-morpholinopropoxy)-4-quinolyl]oxy]phenyl]-1,5-dimethyl-pyrazole-3-carboxamide] | < 500 nM | < 500 nM
CCOc1cn(-c2ccc(F)cc2C)nc1C(=O)Nc1ccc(Oc2ccnc3cc(OCCCN4CCOCC4)c(OC)cc23)c(F)c1 [Example 43, 4-ethoxy-N-[3-fluoro-4-[[6-methoxy-7-(3-morpholinopropoxy)-4-quinolyl]oxy]phenyl]-1-(4-fluoro-2-methyl-phenyl)pyrazole-3-carboxamide] | < 500 nM | < 500 nM
COc1cc2c(Oc3ccc(NC(=O)c4nn(-c5ccc(F)cc5)cc4OC)cc3F)ccnc2cc1OCCCN1CCOCC1 [Example 44, N-[3-fluoro-4-[[6-methoxy-7-(3-morpholinopropoxy)-4-quinolyl]oxy]phenyl]-1-(4-fluorophenyl)-4-methoxy-pyrazole-3-carboxamide] | < 500 nM | < 500 nM
COc1cc2c(Oc3ccc(NC(=O)c4nn(-c5ccc(F)cc5)cc4OC(C)C)cc3F)ccnc2cc1OCCCN1CCOCC1 [Example 45, N-[3-fluoro-4-[[6-methoxy-7-(3-morpholinopropoxy)-4-quinolyl]oxy]phenyl]-1-(4-fluorophenyl)-4-isopropoxy-pyrazole-3-carboxamide] | < 500 nM | < 500 nM
COc1cc2c(Oc3ccc(NC(=O)c4nn(-c5ccc(F)cc5)cc4OCC4CC4)cc3F)ccnc2cc1OCCCN1CCOCC1 [Example 46, 4-(cyclopropylmethoxy)-N-[3-fluoro-4-[[6-methoxy-7-(3-morpholinopropoxy)-4-quinolyl]oxy]phenyl]-1-(4-fluorophenyl)pyrazole-3-carboxamide] | < 500 nM | < 500 nM
CCOc1cn(-c2ccc(F)cc2Cl)nc1C(=O)Nc1ccc(Oc2ccnc3cc(OCCCN4CCOCC4)c(OC)cc23)c(F)c1 [Example 47, 1-(2-chloro-4-fluoro-phenyl)-4-ethoxy-N-[3-fluoro-4-[[6-methoxy-7-(3-morpholinopropoxy)-4-quinolyl]oxy]phenyl]pyrazole-3-carboxamide] | < 500 nM | < 500 nM

Now from value to compound:

IC50 (Axl [1]) | IC50 (Axl [2]) | SMILES
< 500 nM | < 500 nM | CCOc1cn(-c2ccc(F)cc2C)nc1C(=O)Nc1ccc(Oc2ccnc3cc(OC)c(OC)cc23)cc1 [Example 27, N-[4-[(6,7-dimethoxy-4-quinolyl)oxy]phenyl]-4-ethoxy-1-(4-fluoro-2-methyl-phenyl)pyrazole-3-carboxamide]
< 500 nM | < 500 nM | CCOc1cn(-c2ccc(F)cc2)nc1C(=O)Nc1ccc(Oc2ccnc3cc(OC)c(OC)cc23)c(C)c1 [Example 28, N-[4-[(6,7-dimethoxy-4-quinolyl)oxy]-3-methyl-phenyl]-4-ethoxy-1-(4-fluorophenyl)pyrazole-3-carboxamide]
< 500 nM | < 500 nM | COc1cc2nccc(Oc3ccc(NC(=O)c4nn(-c5ccc(F)cc5)cc4OC(C)C)cc3C)c2cc1OC [Example 29, N-[4-[(6,7-dimethoxy-4-quinolyl)oxy]-3-methyl-phenyl]-1-(4-fluorophenyl)-4-isopropoxy-pyrazole-3-carboxamide]
< 500 nM | < 500 nM | COc1cc2nccc(Oc3ccc(NC(=O)c4nn(-c5ccc(F)cc5)cc4OCC4CC4)cc3C)c2cc1OC [Example 30, 4-(cyclopropylmethoxy)-N-[4-[(6,7-dimethoxy-4-quinolyl)oxy]-3-methyl-phenyl]-1-(4-fluorophenyl)pyrazole-3-carboxamide]
< 500 nM | < 500 nM | CCOc1cn(-c2ccc(F)cc2C)nc1C(=O)Nc1ccc(Oc2ccnc3cc(OC)c(OC)cc23)c(C)c1 [Example 31, N-[4-[(6,7-dimethoxy-4-quinolyl)oxy]-3-methyl-phenyl]-4-ethoxy-1-(4-fluoro-2-methyl-phenyl)pyrazole-3-carboxamide]
< 500 nM | < 500 nM | CCOc1cn(-c2ccc(F)cc2)nc1C(=O)Nc1ccc(Oc2ccnc3cc(OC)c(OC)cc23)c(Cl)c1 [Example 32, N-[3-chloro-4-[(6,7-dimethoxy-4-quinolyl)oxy]phenyl]-4-ethoxy-1-(4-fluorophenyl)pyrazole-3-carboxamide]
< 500 nM | < 500 nM | COc1cc2nccc(Oc3ccc(NC(=O)c4nn(-c5ccc(F)cc5)cc4OC(C)C)cc3Cl)c2cc1OC [Example 33, N-[3-chloro-4-[(6,7-dimethoxy-4-quinolyl)oxy]phenyl]-1-(4-fluorophenyl)-4-isopropoxy-pyrazole-3-carboxamide]
< 500 nM | < 500 nM | COc1cc2nccc(Oc3ccc(NC(=O)c4nn(-c5ccc(F)cc5)cc4OCC4CC4)cc3Cl)c2cc1OC [Example 34, N-[3-chloro-4-[(6,7-dimethoxy-4-quinolyl)oxy]phenyl]-4-(cyclopropylmethoxy)-1-(4-fluorophenyl)pyrazole-3-carboxamide]
< 500 nM | < 500 nM | CCOc1cn(-c2ccc(F)cc2C)nc1C(=O)Nc1ccc(Oc2ccnc3cc(OC)c(OC)cc23)c(Cl)c1 [Example 35, N-[3-chloro-4-[(6,7-dimethoxy-4-quinolyl)oxy]phenyl]-4-ethoxy-1-(4-fluoro-2-methyl-phenyl)pyrazole-3-carboxamide]
